{
  "source": "patent US9139615B2",
  "about": "“High-affinity, dimeric inhibitors of PSD-95 as efficient neuroprotectants against ischemic brain damage and for treatment of pain” (University of Copenhagen, priority 2011, dated 2015)",
  "assay_type_in_all_cases": "in vivo, mice",
  "key": {"[1]": {"system": "CFA-induced mechanical allodynia/hyperalgesia", "assay": "Complete Freund's adjuvant (CFA) inflammatory pain, von Frey test", "conditions": "for CFA-induced hyperalgesia: 0.1 mg/kg, given simultaneously with CFA"}, "[2]": {"system": "long-term reference memory", "assay": "Social transmission of food preference (STFP) test", "conditions": "0.1 mg/kg (dose reducing hyperalgesia)", "protocol": "STFP was conducted in two phases. […] A minimum of 2 and a maximum of 5 licking/sniffing interactions were set as criteria for appropriate acquisition of the odour cue. […] Second phase: following a 24-hour retention interval, the observer mice were placed individually in cages containing two trays of crushed food scented with cinnamon or cocoa, respectively. The amount eaten from the cued food over the novel food is taken as an index of memory for the previously cued food. […] Yet, experiments were designed in a balanced fashion to ensure that an equal number of mice within each treatment group were cued with cinnamon and cocoa, respectively.\n(§1) Cognitive data: In the social transmission of food preference test, the preference for the cued food was expressed as a discrimination index, DI=(cued−novel)/(cued+novel). In the modified Y-maze, the preference for the novel arm was expressed as a discrimination index, DI=(time in novel−time in familiar)/(time in novel+time in familiar). STFP and Y-maze data were analysed by one-way ANOVA followed by Planned Comparisons was performed to assess treatment effects on the discrimination index."}, "attention": {"system": "attention", "assay": "Modified Y-maze test of attention", "conditions": "0.05 and 0.1 mg/kg", "protocol": "Testing was carried out in a clear Plexiglass maze composed of 2 perpendicular arms connected to a runway. The 2 arms (available for exploration) and runway were 50 cm long and 8 cm wide, surrounded by clear Plexi-glass walls 30 cm high. Each arm met at a central platform equipped with black removable partitions, enabling arms to be opened and closed as desired. The whole maze was enclosed in a triangular black Plexiglass box (1×1×1 m). The walls of this outer box surrounding each exploration arm were covered with distinct optical cues, e.g., white horizontal or vertical lines. […] The cumulative time spent in each arm was recorded during this test session by an automated video tracking system (Ethovision, Noldus). A discrimination index (DI) was calculated for each mouse, defined as the difference in time spent in the novel and the familiar arm divided by the total time spent in the novel and the familiar arm during phase 2 testing, i.e. DI=(novel−familiar)/(novel+familiar).\nas §1, with “STFP and Y-maze data were analysed by one-way ANOVA followed by Planned Comparisons was performed to assess treatment effects on the discrimination index.” left out"}, "motor performance": {"system": "motor performance", "assay": "Rotarod test of motor performance (side effects)", "conditions": "0.1 mg/kg, at 15, 30, 45 and 60 min", "protocol": "Motor function was evaluated using an accelerating rotarod (MedAssociates, Inc., VT, USA). The rotarod (3.2 cm diameter) speed was increased from 4 to 40 rpm over a 300 s period with the minimum time possible to spend on the rod designated as 0 s and the maximum cut-off time set at 310 s. Each mouse was tested immediately prior to drug treatment (t=0), and again 15, 30, 45 and 60 minutes after drug treatment. When an animal fell off the rotating drum, a photobeam was automatically broken to record the amount of time spent on the rotating rod.\nMotor performance: In the rotarod test, treatment effect on motor coordination was analysed using a two-way RM ANOVA, with treatment as the independent factor and time as repeated measure. Planned comparisons procedure was used to assess treatment effects over time."}, "[3]": {"system": "pMCAO model of ischemic stroke", "assay": "Rotarod performance test after pMCAO", "conditions": "48 hours after pMCAO, 3 nmol/g i.v., four trials", "protocol": "The rotarod (LE 8200, Panlab) is well suited to evaluate motor activity in rodents, experimental compound effects on central nervous system damage, or disease effects on motor coordination, assessed by the time during which the animal remains walking in a rotating drum. The rotation of the rotarod is motor drived and accelerates from 0 to 40 rounds per min (rpm) over a time period of 5 min, at which time all mice have fallen off the rod. All mice were tested in 4 repeating trials with a 20 min interval (resting time). Prior to surgery mice were pre-trained to stay on the rod for 30 seconds, at 4 rpm."}, "[4]": {"system": "pMCAO model of cerebral focal ischemia", "assay": "pMCAO model of cerebral focal ischemia, infarct volume", "conditions": "3 nmol/g i.v. 30 min after pMCAO"}, "[5]": {"system": "pMCAO model of ischemic stroke", "assay": "Grip strength after pMCAO", "conditions": "48 hours after pMCAO, 3 nmol/g i.v.", "protocol": "The grip strength meter (BIO-GT-3, BIOSEB) allows the study of neuromuscular functions in mice by determining the maximum force that is required to make the mouse release its grip. The grip strength in individual paws was used to measure the severity of the pMCAO-induced asymmetry. The mouse is allowed to grasp a metal grid and then pulled backwards in the horizontal plane. The force applied to the grid is recorded as the peak tension. The strength of individual front paws and the total grip strength (both paws simultaneously) were measured before (baseline) and after pMCAO. Each mouse is tested in 5 sequential trials and the highest grip strength is recorded as the best score."}},
  "note": "“Also recorded” adds a separate entry of the source. Where no end group is shown, it is not given here.",
  "data": [
    {"compound": "C[C@]12N[C@H](Cc3ccccc31)c1ccccc12", "note": "[MK-801]", "values": [
      {"measurement": "CFA-induced hyperalgesia", "setting": "[1]; after 1 hour", "value": "significantly reversed the CFA-induced hyperalgesia"},
      {"measurement": "CFA-induced hyperalgesia", "setting": "[1]; after 24 hours", "value": "significant reversal was still observed"},
      {"measurement": "CFA-induced mechanical hyperalgesia", "setting": "[1]; administered concurrently with CFA, 1 hour and 24 hours after treatment", "value": "prevented the development of CFA-induced mechanical hyperalgesia"},
      {"measurement": "discrimination index, social transmission of food preference", "setting": "[2]", "value": "induced cognitive deficits; also recorded: significantly reduced the discrimination index"},
      {"measurement": "discrimination index, modified Y-maze", "setting": "attention", "value": "induced cognitive deficits; also recorded: discrimination index was reduced"},
      {"measurement": "motor performance, time on the rotarod", "setting": "motor performance", "value": "motor deficits; also recorded: significantly decreased time on the rotarod"}
    ]},
    {"compound": "YGRKKRRQRRRKLSSIESDV [Tat-NR2B9c, reference compound]", "values": [
      {"measurement": "total time spent on the rod", "setting": "[3]", "value": "65.7 ± 3.6", "unit": "s"},
      {"measurement": "reduction of ischemic tissue damage (infarct volume) compared to saline", "setting": "[4]; 6 hour post-surgical survival", "value": "did not provide a statistically significant reduction; also recorded: not achieved"},
      {"measurement": "reduction in infarct size compared to saline", "setting": "[4]; 48 hours after pMCAO", "value": "no statistically significant infarct reduction"},
      {"measurement": "grip strength asymmetry between right and left front paw", "setting": "[5]", "value": "observed"},
      {"measurement": "total grip strength (both paws) compared to baseline", "setting": "[5]", "value": "lost a significant amount of grip strength; also recorded: significant reduced grip strength"}
    ]}
  ]
}
